Read-outs that look alike come from different tables or passages of the source.
Experiments:
isolated gastric glands = details: for reduction in secretagogue induced proton secretion (proton extrusion, acid production): Carbachol 200 μM, means from 5 rats; for inhibitory effect on secretagogue induced acid secretion, in words: rat gastric glands
Experimental: (§1) In this series of studies we used glands from rats that have been fasted for 18 hours with free access to water to reduce basal acid secretion to zero. Following isolation the glands were placed in a perfusion chamber that was maintained at 37° C. Prior to exposure to the Zn solution the glands were loaded with the Fluorescent reagent BCECF to monitor intracellular pH, this is based on technology we have used in the lab. In these studies we stimulated acid secretion by exposing the individual glands to 200 μM Carbachol a well characterized activator of acid secretion. In parallel to these studies (Control glands) we exposed glands from the same animal to a solution that contained ZnSO4.7H2O. […] In subsequent studies we then reduced the concentration of ZnSO4.7H2O by an order of magnitude ([…]) and repeated the study. For each dose used a minimum of 5 animals was used. […] We reduced to a concentration of 0.03 μM.

isolated glands = test system: isolated glands
Experimental: In this series of studies Rats were given free access to water and normal rat chow for a period of 5 days. In one group 30 μM ZnSO4.7H2O was added to the drinking water so that the animals are getting a constant exposure of ZnSO4.7H2O. At the end of the 5 day period the animals were sacrificed and the stomach removed. We examined how these glands performed to addition of a secretagogue as previously defined in Protocol 1. In the second group we repeated the study giving 3 μM ZnSO4.7H2O for the 5 day period while allowing normal access to food and water.

isolated human glands = details: for inhibitory effect on secretagogue induced acid secretion, in words: human gastric glands
Experimental: as §1
Note that doses of 300 μM and 3 μM were used. […] All data are the means from 5 separate human samples.

isolated stomachs = details: simultaneous with secretagogue, 15 minute exposure, fasted rats
Experimental: We took age and sex matched animals for these studies. The stomach was excised and perfused with 0.5 ml of nonbuffered saline solution in vitro with a solution of either 200 μM Carbachol or ZnSO4.7H2O+200 μM Carbachol following a 15 minute perfusion time we collected the effluent from the stomach and measure intragastric pH in this fluid following a protocol that we have used in the past.

[1] = listed as zinc sulfate heptahydate

## O.O.O.O.O.O.O.O=S(=O)([O-])[O-].[Zn+2] [zinc sulfate heptahydrate]
Isolated gastric glands; about 0.3 μM to about 300 μM, more often about 3 μM to about 30 μM
  inhibiting acid secretion in the stomach: almost complete inhibition
Isolated gastric glands; dose of 0.03 μM
  reduction in secretagogue induced proton secretion (proton extrusion, acid production): p<0.03 significant reduction
Isolated gastric glands; dose of 0.03 μM, listed as ZnSO4.7H2O
  reduction in secretagogue induced proton secretion (proton extrusion, acid production): modest yet significant inhibition of acid secretion (p<0.03)
Isolated gastric glands; doses from 300 to 0.3 μM
  reduction in secretagogue induced proton secretion (proton extrusion, acid production): significant p<0.0001 reduction
Isolated gastric glands; doses from 300 to 0.3 μM, listed as ZnSO4.7H2O
  reduction in secretagogue induced proton secretion (proton extrusion, acid production): highly significant inhibition of proton extrusion (p<0.0001)
Isolated gastric glands; listed as ZnSO4.7H2O
  inhibitory effect on secretagogue induced acid secretion, in words: potent inhibitor
Isolated gastric glands; [1]
  inhibitory effect on secretagogue induced acid secretion, in words: abolishing the activity of the gastric H^+,K^+-ATPase
Isolated glands; 3 μM in drinking water for 7 days, versus blank water
  basal acid secretion in the gland: slightly higher than blank water
Isolated glands; 3 μM in drinking water for 7 days, versus matched controls
  Carbachol (secretagogue) induced acid secretion: marked suppression
Isolated glands; 30 μM, 1 week ad lib access
  basal acid secretion in the gland: no basal acid secretion
  secretagogue (carbachol) induced acid secretion in the gland: no effect
Isolated human glands; doses of 300 μM and 3 μM, Carbachol, means from 5 human samples
  inhibition of proton extrusion (acid secretion): highly significant inhibition of proton extrusion (p<0.0001)
Isolated human glands; listed as ZnSO4.7H2O
  inhibitory effect on secretagogue induced acid secretion, in words: potent inhibitor
Isolated human glands; [1]
  inhibitory effect on secretagogue induced acid secretion, in words: abolishing the activity of the gastric H^+,K^+-ATPase
Isolated stomachs; 3 μM, listed as ZnSO4Heptahydrate
  elevation in gastric pH: ≥ 1 pH unit
Isolated stomachs; 3 μM, listed as ZnSO4.7H2O
  elevation in gastric pH: 1 pH unit
Isolated stomachs; 30 μM, listed as ZnSO4Heptahydrate
  elevation in gastric pH: ≥ 1 pH unit
Isolated stomachs; 30 μM, listed as ZnSO4.7H2O
  elevation in gastric pH: 1 pH unit

From patent publication US20170209489A1, “FAST ACTING INHIBITOR OF GASTRIC ACID SECRETION WITH ENHANCED ACTIVITY” (YALE UNIVERSITY, priority 2014, published 2017)
